Assay results reported in patent EP0424538A1, “PYRIDINE DERIVATIVES AND THEIR SALTS, AND INSECTICIDAL/ACARICIDAL AGENT CONTAINING THE SAME AS ACTIVE INGREDIENT” (IDEMITSU KOSAN COMPANY LIMITED, priority 1989, dated 1990).

Tested on: larvae (3-periods old) of tobiirounka
Assay: rice stalk immersion test, life or death of larvae
Assay type: in vivo
Details: 168 h; rice stalk immersed 1 minute in 500 ppm chemical solution; checked after 7 days at 25 °C; read-out: % dead larvae
Description: A stalk of rice cut in a length of 10 cm was immersed for 1 minutes in a chemical solution of one of the compounds obtained in the examples (excepting the compound of Example 4) in a concentration of 500 ppm and, after air-drying, put into a test tube containing water, in which larvae (3-periods old) of tobiirounka were released and kept standing in a thermostatic chamber at 25 °C with a cotton plug.
After 7 days of the testing, life or death of the above mentioned larvae was checked to find 100% dead larvae with each of the compounds obtained in the examples. Comparative Test Example.
In place of the compounds used in Test Example, the same test was undertaken by using: . [drawing 136]

Structure (SMILES)	mortality at 500 µg/mL
CCCCc1cnccc1CC	92%
C=CCC(CC=C)c1ccncc1C [CA 85, 32850y, 1976]	90%
CC(C)(C)c1ccncc1C(C)(C)C [CA 100, 155997n, 1984]	92%
Cc1cnccc1C(C)CCC1CCCCC1 (stereo not drawn) [CA 109, 6426j, 1988]	98%

Tested on: cabbage maggot (Hylemya brassicae)
Assay: not given
Details: from Chemical Abstracts and Journal of Economic Entomology, 41, 98, 1948; cited from earlier work

Structure (SMILES)	activity against cabbage maggot
CCCCC(CCCC)c1ccncc1 [4-(5-nonyl) pyridine]	no activity was recognized
CCCCCc1ccncc1 [4-n-amyl pyridine]	no activity was recognized
